Assay results published in publication PMC11243598, “Inhibition of Monoamine Oxidases by Pyridazinobenzylpiperidine Derivatives” (Molecules, 2024).

Key:
hMAO-A = target: T1, hMAO-A (Homo sapiens, UniProt P21397); test: Inhibition of recombinant hMAO-A, kynuramine substrate, continuous absorbance method; details: for remaining activity at 10 µM: read-out: Residual Activity at 10 µM (%) MAO-A
T1 sequence (P21397 1-527): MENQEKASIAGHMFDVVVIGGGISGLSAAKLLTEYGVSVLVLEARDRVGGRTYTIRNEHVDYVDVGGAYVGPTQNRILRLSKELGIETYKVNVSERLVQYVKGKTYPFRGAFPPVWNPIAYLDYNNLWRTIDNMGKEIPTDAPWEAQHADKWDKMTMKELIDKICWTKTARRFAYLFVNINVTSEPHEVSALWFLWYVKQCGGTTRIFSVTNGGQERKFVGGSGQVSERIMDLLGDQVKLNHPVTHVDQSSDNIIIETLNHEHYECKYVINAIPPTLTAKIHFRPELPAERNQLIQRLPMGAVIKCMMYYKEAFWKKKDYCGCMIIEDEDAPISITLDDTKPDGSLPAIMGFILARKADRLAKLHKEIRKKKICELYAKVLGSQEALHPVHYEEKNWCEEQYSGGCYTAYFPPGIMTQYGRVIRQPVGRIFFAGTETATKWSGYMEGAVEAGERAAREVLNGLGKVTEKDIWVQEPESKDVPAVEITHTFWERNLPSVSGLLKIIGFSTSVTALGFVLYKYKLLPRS

MAO-B [1] = target: T2, MAO-B (Homo sapiens, UniProt P27338); test: biochemical; details: for remaining activity at 10 µM: read-out: Residual Activity at 10 µM (%) MAO-B
T2 sequence (P27338 1-520): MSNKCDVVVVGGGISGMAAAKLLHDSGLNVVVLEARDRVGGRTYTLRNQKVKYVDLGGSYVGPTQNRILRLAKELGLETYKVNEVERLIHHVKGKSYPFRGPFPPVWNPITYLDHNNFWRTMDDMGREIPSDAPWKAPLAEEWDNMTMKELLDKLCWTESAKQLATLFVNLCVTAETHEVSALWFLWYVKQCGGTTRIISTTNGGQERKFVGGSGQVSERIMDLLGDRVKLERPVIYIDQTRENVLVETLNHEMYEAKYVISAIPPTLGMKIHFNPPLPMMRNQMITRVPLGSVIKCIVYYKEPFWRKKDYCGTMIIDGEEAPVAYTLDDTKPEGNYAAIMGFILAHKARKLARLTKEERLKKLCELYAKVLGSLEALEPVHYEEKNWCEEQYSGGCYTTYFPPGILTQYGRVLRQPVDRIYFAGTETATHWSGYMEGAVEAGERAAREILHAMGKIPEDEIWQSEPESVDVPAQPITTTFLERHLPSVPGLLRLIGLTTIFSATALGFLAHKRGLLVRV

MAO-B [2] = target: T2, MAO-B; test: MAO-B inhibition kinetics (Lineweaver-Burk and secondary plots); assay type: biochemical; parameters: purchased Sigma-Aldrich
MAO-B [3] = target: T2, MAO-B; test: Reversibility of MAO-B inhibition by dialysis; assay type: biochemical; parameters: purchased Sigma-Aldrich
[4] = PAMPA for blood-brain barrier permeation; assay type: in vitro ADME

SMILES | IC50 (hMAO-A) | remaining activity at 10 µM (hMAO-A) | IC50 (MAO-B [1]) | remaining activity at 10 µM (MAO-B [1]) | Type of MAO-B inhibition (MAO-B [2]; LB plots, five substrate and three inhibitor concentrations) | Ki (MAO-B [2]; secondary plot of LB slopes, benzylamine substrate) | Reversibility of MAO-B inhibition (MAO-B [3]; dialysis, compared with safinamide and pargyline) | Experimental Pe ([4]; PAMPA-BBB, pH 7.4) | Papp ([4]; PAMPA-BBB, pH 7.4, read-out: Experimental Pe) | Prediction (BBB permeation class) ([4]; class from Pe) | activity (MAO-B [3]; about 2.0 times IC50 (S5 0.4 μM, S16 2.0 μM), 30 min pre-incubation, read-out: Residual MAO-B activity before recovery, undialyzed (AU))
N#Cc1ccc(C=NNC(=O)Cn2nc(N3CCC(Cc4ccccc4)CC3)ccc2=O)cc1 [Compound S18, N′-4-cyanobenzylidene-2-(3-(4-benzylpiperidin-1-yl)-6-oxopyridazin-1(6H)-yl)acetohydrazide] | 7.19 ± 0.201 µM | 35.9 ± 2.54% | 3.51 ± 0.811 µM | 48.37 ± 0.08% |  |  |  |  |  |  | 
N#Cc1cccc(C=NNC(=O)Cn2nc(N3CCC(Cc4ccccc4)CC3)ccc2=O)c1 [Compound S17, N′-3-cyanobenzylidene-2-(3-(4-benzylpiperidin-1-yl)-6-oxopyridazin-1(6H)-yl)acetohydrazide] | 6.28 ± 0.306 µM | 9.98 ± 0.57% | 3.1 ± 0.088 µM | 0% |  |  |  |  |  |  | 
N#Cc1ccccc1C=NNC(=O)Cn1nc(N2CCC(Cc3ccccc3)CC2)ccc1=O [Compound S16, N′-2-cyanobenzylidene-2-(3-(4-benzylpiperidin-1-yl)-6-oxopyridazin-1(6H)-yl)acetohydrazide] | 6.15 ± 0.305 µM | 33.2 ± 9.25% | 0.979 ± 0.206 µM | -12.9 ± 1.14% | competitive | 0.721 ± 0.074 µM | reversible | 3.78 ×10⁻⁶ cm/s | 3.78 ± 0.2 ×10⁻⁶ cm/s |  | 
COc1ccc(C=NNC(=O)Cn2nc(N3CCC(Cc4ccccc4)CC3)ccc2=O)cc1 [Compound S12] | 4.642 ± 0.001 µM | 7.71 ± 8.25% | 6.463 ± 0.035 µM | 38.46 ± 0.36% |  |  |  |  |  |  | 
O=C(Cn1nc(N2CCC(Cc3ccccc3)CC2)ccc1=O)NN=Cc1cccc(Br)c1 [Compound S4, N′-3-bromobenzylidene-2-(3-(4-benzylpiperidin-1-yl)-6-oxopyridazin-1(6H)-yl)acetohydrazide] | 27 ± 0.797 µM | 56.9 ± 9.78% | 6.17 ± 0.155 µM | 33.5 ± 2.5% |  |  |  |  |  |  | 
COc1ccc(C=NNC(=O)Cn2nc(N3CCC(Cc4ccccc4)CC3)ccc2=O)c(OC)c1 [Compound S24, N′-2,4-dimethoxybenzylidene-2-(3-(4-benzylpiperidin-1-yl)-6-oxopyridazin-1(6H)-yl)acetohydrazide] | 4.13 ± 0.107 µM | 20.7 ± 1.34% | 10.7 ± 2.48 µM | 54.7 ± 3.76% |  |  |  |  |  |  | 
O=C(Cn1nc(N2CCC(Cc3ccccc3)CC2)ccc1=O)NN=Cc1ccc(Cl)cc1 [Compound S6] | 7.14 ± 1.07 µM | 42.2 ± 3.22% | 4.95 ± 0.353 µM | 26.7 ± 3.83% |  |  |  |  |  |  | 
C#CCN(C)[C@H](C)Cc1ccccc1 [Selegiline, reference compound] |  |  |  |  |  |  |  |  |  | CNS+ (Pe (10^−6 cm·s^−1) > 4.00: CNS+ (high permeation)) | 
O=C(Cn1nc(N2CCC(Cc3ccccc3)CC2)ccc1=O)NN=Cc1cccc(F)c1 [Compound S7, N′-3-fluorobenzylidene-2-(3-(4-benzylpiperidin-1-yl)-6-oxopyridazin-1(6H)-yl)acetohydrazide] | 4.74 ± 0.624 µM | 12.8 ± 7.24% | 1.711 ± 0.009 µM | 1.03 ± 4.63% |  |  |  |  |  |  | 
COc1cc(C=NNC(=O)Cn2nc(N3CCC(Cc4ccccc4)CC3)ccc2=O)cc(OC)c1 [Compound S20, N′-3,5-dimethoxybenzylidene-2-(3-(4-benzylpiperidin-1-yl)-6-oxopyridazin-1(6H)-yl)acetohydrazide] | 19 ± 2.71 µM | 68 ± 4.21% | 3.63 ± 0.142 µM | 11.7 ± 2.41% |  |  |  |  |  |  | 
COc1cc(C=NNC(=O)Cn2nc(N3CCC(Cc4ccccc4)CC3)ccc2=O)cc(OC)c1OC [Compound S23, N′-3,4,5-trimethoxybenzylidene-2-(3-(4-benzylpiperidin-1-yl)-6-oxopyridazin-1(6H)-yl)acetohydrazide] | 28.4 ± 2.95 µM | 78.79 ± 0.3% | 10.9 ± 0.405 µM | 53.1 ± 2.67% |  |  |  |  |  |  | 
O=C(Cn1nc(N2CCC(Cc3ccccc3)CC2)ccc1=O)NN=Cc1ccccc1Br [Compound S3, N′-2-bromobenzylidene-2-(3-(4-benzylpiperidin-1-yl)-6-oxopyridazin-1(6H)-yl)acetohydrazide] | 4.13 ± 1.12 µM | 34.4 ± 1.93% | 4.75 ± 0.155 µM | 50.59 ± 0.01% |  |  |  |  |  |  | 
COc1cc(OC)c(C=NNC(=O)Cn2nc(N3CCC(Cc4ccccc4)CC3)ccc2=O)c(OC)c1 [Compound S21, N′-2,4,6-trimethoxybenzylidene-2-(3-(4-benzylpiperidin-1-yl)-6-oxopyridazin-1(6H)-yl)acetohydrazide] | 7.47 ± 0.344 µM | 32.8 ± 2.18% | 6.12 ± 0.662 µM | 48.5 ± 6.43% |  |  |  |  |  |  | 
O=C(Cn1nc(N2CCC(Cc3ccccc3)CC2)ccc1=O)NN=Cc1ccc(Br)cc1 [Compound S2] | 10.9 ± 1.19 µM | 54.8 ± 3.1% | 10.7 ± 0.565 µM | 56.5 ± 4.99% |  |  |  |  |  |  | 
O=C(Cn1nc(N2CCC(Cc3ccccc3)CC2)ccc1=O)NN=Cc1ccc([N+](=O)[O-])cc1 [Compound S14] | 24.2 ± 0.283 µM | 67.1 ± 5.19% | 3.62 ± 0.54 µM | 39.8 ± 4.14% |  |  |  |  |  |  | 
Cc1ccccc1C=NNC(=O)Cn1nc(N2CCC(Cc3ccccc3)CC2)ccc1=O [Compound S9, N′-2-methylbenzylidene-2-(3-(4-benzylpiperidin-1-yl)-6-oxopyridazin-1(6H)-yl)acetohydrazide] | 4.51 ± 0.589 µM | 23.2 ± 1.2% | 7.24 ± 0.994 µM | 32.9 ± 5.19% |  |  |  |  |  |  | 
CN(C)c1ccc(C=NNC(=O)Cn2nc(N3CCC(Cc4ccccc4)CC3)ccc2=O)cc1 [Compound S13] | 5.63 ± 1.18 µM | 36.1 ± 1.01% | 6.48 ± 0.559 µM | 37.6 ± 2.5% |  |  |  |  |  |  | 
COc1cccc(C=NNC(=O)Cn2nc(N3CCC(Cc4ccccc4)CC3)ccc2=O)c1 [Compound S11] | 5.064 ± 0.006 µM | 16.6 ± 9.23% | 1.71 ± 0.437 µM | 14.5 ± 1.14% |  |  |  |  |  |  | 
C[C@H](NCc1ccc(OCc2cccc(F)c2)cc1)C(N)=O [Safinamide, reference compound] |  | 69 ± 1.36% |  | -15.6 ± 0.86% |  |  |  |  |  |  | 28.3%
COc1ccccc1C=NNC(=O)Cn1nc(N2CCC(Cc3ccccc3)CC2)ccc1=O [Compound S19, N′-2-methoxybenzylidene-2-(3-(4-benzylpiperidin-1-yl)-6-oxopyridazin-1(6H)-yl)acetohydrazide] | 4.66 ± 0.307 µM | 7.83 ± 2.05% |  | 20.8 ± 1.76% |  |  |  |  |  |  | 
O=C(Cn1nc(N2CCC(Cc3ccccc3)CC2)ccc1=O)NN=Cc1ccccc1 [Compound S1] | 16.47 ± 0.047 µM | 63.4 ± 2.24% | 7.05 ± 0.086 µM | 36.5 ± 8.32% |  |  |  |  |  |  | 
CCc1ccc(C=NNC(=O)Cn2nc(N3CCC(Cc4ccccc4)CC3)ccc2=O)cc1 [Compound S15, N′-4-ethylbenzylidene-2-(3-(4-benzylpiperidin-1-yl)-6-oxopyridazin-1(6H)-yl)acetohydrazide] | 3.69 ± 0.655 µM | 30.1 ± 8.1% | 5.34 ± 0.667 µM | 54.4 ± 4.05% |  |  |  |  |  |  | 
O=C(Cn1nc(N2CCC(Cc3ccccc3)CC2)ccc1=O)NN=Cc1ccc(F)cc1 [Compound S8] | 7.99 ± 1.28 µM | 22.4 ± 3.07% | 5.37 ± 0.123 µM | 31.9 ± 2.62% |  |  |  |  |  |  | 
COc1cccc(C=NNC(=O)Cn2nc(N3CCC(Cc4ccccc4)CC3)ccc2=O)c1OC [Compound S22, N′-2,3-dimethoxybenzylidene-2-(3-(4-benzylpiperidin-1-yl)-6-oxopyridazin-1(6H)-yl)acetohydrazide] | 5.94 ± 0.264 µM | -8.5 ± 2.12% | 7.87 ± 0.208 µM | 39 ± 2.83% |  |  |  |  |  |  | 
Cc1cccc(C=NNC(=O)Cn2nc(N3CCC(Cc4ccccc4)CC3)ccc2=O)c1 [Compound S10, N′-3-methylbenzylidene-2-(3-(4-benzylpiperidin-1-yl)-6-oxopyridazin-1(6H)-yl)acetohydrazide] | 4.53 ± 0.424 µM | 16.1 ± 4.26% | 3.549 ± 0.001 µM | 9.31 ± 2.04% |  |  |  |  |  |  | 
C#CCN(C)Cc1ccccc1 [Pargyline, reference compound] |  | 19.9 ± 6.82% |  |  |  |  |  |  |  |  | 
